In PubChem BioAssay (NCI) one finds TGI and GI50 data, which are given here for nine compounds.

Where “and” joins values, the source holds several entries; their conditions need not be identical. Equal values may be shown once.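 Assay format: 96-well plates, 48-hour exposure. The concentration for 50% growth inhibition is given as GI50. TGI: total growth inhibition.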

Test systems include CCRF-CEM leukemia; HCC-2998 colon; TK-10 renal; RXF 393 renal; IGROV1 ovarian; NCI-H226 lung; M14 melanoma; UACC-257 melanoma; HCT-15 colon; SK-MEL-2 melanoma.
Common to all, as to test: growth of human tumour cells (NCI), 48 h

On to `NS(=O)(=O)c1ccc(NCc2cnc3ccccc3n2)cc1`, for which the TGI in the assay with CCRF-CEM leukemia, with HCC-2998 colon, in the assay with TK-10 renal, in the assay on RXF 393 renal, with IGROV1 ovarian and in the assay on NCI-H226 lung was more than 100 µM throughout. For the same compound, the TGI in the assay on M14 melanoma, in the assay with UACC-257 melanoma, in the assay on HCT-15 colon and in the assay with SK-MEL-2 melanoma was more than 100 µM each time.

Consider `C=C1COC(O)(C2OCOC(C3CC(=O)NC(=O)C3)C2O)C1C` (configuration not stated), for which the TGI with CCRF-CEM leukemia was 0.00744 µM; with HCC-2998 colon it was 0.0174 µM and 0.0244 µM; in the assay on TK-10 renal, 0.0539 µM and 0.0498 µM; in the assay with RXF 393 renal it was 0.00759 µM and 0.0177 µM and 0.0104 µM; in the assay with IGROV1 ovarian, 0.0442 µM and 0.0773 µM; in the assay with NCI-H226 lung, 0.019 µM and 0.0216 µM. Also, the TGI in the assay on M14 melanoma is 0.017 µM and 0.0232 µM; with UACC-257 melanoma, 0.0278 µM and 0.0453 µM; in the assay with SK-MEL-2 melanoma it was 0.00927 µM and 0.0446 µM. The GI50 with HCC-2998 colon is 0.00218 µM; with TK-10 renal it was 0.00456 µM; in the assay with RXF 393 renal, 0.00134 µM; in the assay on IGROV1 ovarian it was 0.00383 µM and 0.0166 µM; in the assay with NCI-H226 lung it was 0.00356 µM; with M14 melanoma it was 0.00323 µM. The GI50 is 0.004 µM and 0.0126 µM in the assay on UACC-257 melanoma; 0.00363 µM and 0.0127 µM with HCT-15 colon; 0.00243 µM in the assay with SK-MEL-2 melanoma.

On to `CCCCCCC/C=C/[C@H]1O[C@]2(O)C(=O)C=C3C[C@@H](O[C@@H]4O[C@H](CO)[C@@H](O)C(O)[C@@H]4O)C[C@@H]3[C@H]2C=C1C` (some centres not stated), for which the GI50 in the assay on CCRF-CEM leukemia is 1.04 µM; in the assay with HCC-2998 colon, 4.93 µM; in the assay with TK-10 renal, 5.51 µM; in the assay on RXF 393 renal it was 0.82 µM; in the assay with IGROV1 ovarian, 2.77 µM; with NCI-H226 lung, 4.52 µM. Moreover, the GI50 was 1.58 µM with M14 melanoma, 2.98 µM in the assay on UACC-257 melanoma, 1.04 µM with HCT-15 colon and 3.46 µM in the assay with SK-MEL-2 melanoma. In addition, the TGI with CCRF-CEM leukemia worked out at 4.9 µM; with HCC-2998 colon, 9.82 µM; with TK-10 renal, 11 µM; in the assay with RXF 393 renal, 2.62 µM; in the assay with IGROV1 ovarian, 15.2 µM; in the assay with NCI-H226 lung it was 13.7 µM. In addition, the TGI with M14 melanoma turned out to be 6.35 µM; with UACC-257 melanoma, 7.59 µM; with HCT-15 colon, 4.59 µM; in the assay on SK-MEL-2 melanoma, 9.34 µM.

As for `NC(=O)c1ncn(CCN2CCN(C(=O)NCCCCCCNC(=O)N3CCN(CCn4cnc(C(N)=O)c4N)CC3)CC2)c1N`, the TGI in the assay on CCRF-CEM leukemia, in the assay on HCC-2998 colon, in the assay on TK-10 renal, in the assay on RXF 393 renal, in the assay with IGROV1 ovarian and with NCI-H226 lung was more than 100 µM throughout. In addition, the TGI in the assay with M14 melanoma, with UACC-257 melanoma, in the assay with HCT-15 colon and with SK-MEL-2 melanoma was more than 100 µM in each case.

Consider `O=C1C(Nc2ccc(Br)cc2)=C(I)C(=O)c2ncccc21`, for which the GI50 in the assay on CCRF-CEM leukemia was 0.859 µM; in the assay with HCC-2998 colon, 3.22 µM; with TK-10 renal it was 3.54 µM; with RXF 393 renal it was 0.909 µM; with IGROV1 ovarian it was 0.678 µM; in the assay with NCI-H226 lung it was 0.988 µM. In addition, the GI50 in the assay with M14 melanoma was 0.815 µM; with UACC-257 melanoma, 0.835 µM; in the assay on HCT-15 colon, 0.588 µM; with SK-MEL-2 melanoma it was 1.27 µM. Further, the TGI in the assay on CCRF-CEM leukemia stood at 2.97 µM; in the assay with HCC-2998 colon, 10.4 µM; in the assay on TK-10 renal it was 9.74 µM; in the assay with RXF 393 renal, 1.73 µM; in the assay with IGROV1 ovarian, 1.36 µM; in the assay with NCI-H226 lung it was 2.13 µM. Besides, the TGI in the assay on M14 melanoma amounted to 1.93 µM; in the assay with UACC-257 melanoma it was 1.95 µM; in the assay with HCT-15 colon, 1.79 µM; in the assay on SK-MEL-2 melanoma, 4.77 µM.

In the case of `CCC(CCC(C)C1CCC2C3CC=C4CC(OC5OC(CO)C(O)C(O)C5O)CCC4(C)C3CCC12C)C(C)C` (configuration not stated), the TGI in the assay on CCRF-CEM leukemia, in the assay with HCC-2998 colon, in the assay with TK-10 renal, with RXF 393 renal, in the assay with IGROV1 ovarian and in the assay on NCI-H226 lung was more than 100 µM throughout. For the same compound, the TGI with M14 melanoma, in the assay with UACC-257 melanoma, in the assay on HCT-15 colon and in the assay on SK-MEL-2 melanoma was more than 100 µM each time.

`C[C@]12CC[C@H]3[C@@H](CCC4=CC(=O)CC[C@@]43C)[C@@H]1CC[C@@H]2C(=O)COS(=O)(=O)c1ccc(Br)cc1`: the TGI in the assay with CCRF-CEM leukemia was 3.01 µM; with HCC-2998 colon, 8.74 µM; with TK-10 renal, 34.5 µM; in the assay on RXF 393 renal, more than 50.8 µM; with IGROV1 ovarian, 3.28 µM; in the assay with NCI-H226 lung it was 39.3 µM. The TGI with M14 melanoma came to 23.8 µM; in the assay with UACC-257 melanoma, 31.9 µM; in the assay with HCT-15 colon it was 55.7 µM; in the assay on SK-MEL-2 melanoma, 22.3 µM.

For the compound `Clc1cc2c(nn1)Nc1ccccc1S2`, the GI50 in the assay with CCRF-CEM leukemia, with HCC-2998 colon, in the assay on TK-10 renal, in the assay with RXF 393 renal, in the assay with IGROV1 ovarian and with NCI-H226 lung was more than 100 µM each time. Besides, the GI50 in the assay on M14 melanoma, in the assay with UACC-257 melanoma, with HCT-15 colon and with SK-MEL-2 melanoma was more than 100 µM throughout. In addition, the TGI in the assay on CCRF-CEM leukemia, in the assay on HCC-2998 colon, in the assay with TK-10 renal, with RXF 393 renal, with IGROV1 ovarian and with NCI-H226 lung was more than 100 µM in each case. In addition, the TGI in the assay with M14 melanoma, with UACC-257 melanoma, in the assay on HCT-15 colon and in the assay on SK-MEL-2 melanoma was more than 100 µM throughout.

Consider `Clc1nc(Cl)c2c3c(sc2n1)CCCC3`, for which the GI50 was 17.1 µM in the assay with CCRF-CEM leukemia; more than 28.9 µM with HCC-2998 colon; 5.34 µM in the assay with TK-10 renal; 4.06 µM in the assay on RXF 393 renal; 3.85 µM in the assay on IGROV1 ovarian; 2.54 µM with NCI-H226 lung. In addition, the GI50 in the assay on M14 melanoma is 4.49 µM; in the assay with UACC-257 melanoma, more than 26.1 µM; in the assay on HCT-15 colon it was 4.07 µM. The TGI with CCRF-CEM leukemia is more than 100 µM; in the assay with HCC-2998 colon, more than 100 µM; in the assay with TK-10 renal it was more than 100 µM; with RXF 393 renal it was more than 100 µM; in the assay on IGROV1 ovarian it was more than 100 µM; in the assay on NCI-H226 lung, more than 28.8 µM. The TGI with M14 melanoma is more than 100 µM; with UACC-257 melanoma it was more than 100 µM; with HCT-15 colon it was more than 100 µM; with SK-MEL-2 melanoma, more than 59.7 µM.
